# Results published in PubChem BioAssay AID1963970 (Molecular Pharmacology Branch, DTP, NCI, 2024).
# “And” between values parts separate entries of the source, which are not always exact repeats. Equal entries are not always repeated.
# System: 931267-113-T-J1-PDC multicell spheroid viability
# Test: Anticancer human tumor 931267-113-T-J1-PDC patient-derived colon adenocarcinoma cell line growth inhibition [PI3K]
# Settings: for viability, T/C: stronger effect = lower value
# Outline: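 Combination activity was assessed by viability in multicellular tumor spheroids carrying HUVEC and MSC components. Agents were tested with PI3K inhibitors from a Cmax-based top dose (or 10 microM) downward in half-log increments.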
# [1] = curve of first compound, second compound 0.00316 µM
# [2] = curve of first compound, second compound 0.01 µM
# [3] = curve of first compound, second compound 0.0316 µM
# [4] = curve of first compound, second compound 0.1 µM
# [5] = curve of first compound, second compound 0.316 µM
# [6] = curve of first compound, second compound 1 µM
# [7] = second compound 0.00316 µM, first compound 0.00316 µM
# [8] = second compound 0.00316 µM, first compound 0.01 µM
# [9] = second compound 0.00316 µM, first compound 0.0316 µM
# [10] = second compound 0.00316 µM, first compound 0.1 µM
# [11] = second compound 0.00316 µM, first compound 0.316 µM
# [12] = second compound 0.00316 µM, first compound 1 µM
# [13] = second compound 0.01 µM, first compound 0.00316 µM
# [14] = second compound 0.01 µM, first compound 0.01 µM
# [15] = second compound 0.01 µM, first compound 0.0316 µM
# [16] = second compound 0.01 µM, first compound 0.1 µM
# [17] = second compound 0.01 µM, first compound 0.316 µM
# [18] = second compound 0.01 µM, first compound 1 µM
# [19] = second compound 0.0316 µM, first compound 0.00316 µM
# [20] = second compound 0.0316 µM, first compound 0.01 µM
# [21] = second compound 0.0316 µM, first compound 0.0316 µM
# [22] = second compound 0.0316 µM, first compound 0.1 µM
# [23] = second compound 0.0316 µM, first compound 0.316 µM
# [24] = second compound 0.0316 µM, first compound 1 µM
# [25] = second compound 0.1 µM, first compound 0.00316 µM
# [26] = second compound 0.1 µM, first compound 0.01 µM
# [27] = second compound 0.1 µM, first compound 0.0316 µM
# [28] = second compound 0.1 µM, first compound 0.1 µM
# [29] = second compound 0.1 µM, first compound 0.316 µM
# [30] = second compound 0.1 µM, first compound 1 µM
# [31] = second compound 0.316 µM, first compound 0.00316 µM
# [32] = second compound 0.316 µM, first compound 0.01 µM
# [33] = second compound 0.316 µM, first compound 0.0316 µM
# [34] = second compound 0.316 µM, first compound 0.1 µM
# [35] = second compound 0.316 µM, first compound 0.316 µM
# [36] = second compound 0.316 µM, first compound 1 µM
# [37] = second compound 1 µM, first compound 0.00316 µM
# [38] = second compound 1 µM, first compound 0.01 µM
# [39] = second compound 1 µM, first compound 0.0316 µM
# [40] = second compound 1 µM, first compound 0.1 µM
# [41] = second compound 1 µM, first compound 0.316 µM
# [42] = second compound 1 µM, first compound 1 µM
# 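Further: viability read 7 days after compound addition.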
structure (smiles),measurement,setting,value
CCN1CCN(Cc2ccc(Nc3ncc(F)c(-c4cc(F)c5nc(C)n(C(C)C)c5c4)n3)nc2)CC1 + CC(Nc1ccc2c(c1)OCCn1cc(N3C(=O)OCC3C(F)F)nc1-2)C(N)=O,IC50,[1],> 1000 nM
same,IC50,[2],> 1000 nM
same,IC50,[3],> 1000 nM
same,IC50,[4],> 1000 nM
same,IC50,[5],> 1000 nM
same,IC50,[6],452 nM
same,"viability, T/C",[7],95.5%
same,"viability, T/C",[8],99.3%
same,"viability, T/C",[9],102%
same,"viability, T/C",[10],108%
same,"viability, T/C",[11],99.3%
same,"viability, T/C",[12],80.8%
same,"viability, T/C",[13],108%
same,"viability, T/C",[14],96.7%
same,"viability, T/C",[15],99.2%
same,"viability, T/C",[16],91.5%
same,"viability, T/C",[17],93.4%
same,"viability, T/C",[18],80.7%
same,"viability, T/C",[19],105%
same,"viability, T/C",[20],101%
same,"viability, T/C",[21],95.2%
same,"viability, T/C",[22],85.2%
same,"viability, T/C",[23],86%
same,"viability, T/C",[24],70.2%
same,"viability, T/C",[25],92.8%
same,"viability, T/C",[26],97.8%
same,"viability, T/C",[27],94.1%
same,"viability, T/C",[28],79.7%
same,"viability, T/C",[29],69.7%
same,"viability, T/C",[30],60.9%
same,"viability, T/C",[31],80.4%
same,"viability, T/C",[32],84.5%
same,"viability, T/C",[33],79%
same,"viability, T/C",[34],70.4%
same,"viability, T/C",[35],62.5%
same,"viability, T/C",[36],51.6%
same,"viability, T/C",[37],86.7%
same,"viability, T/C",[38],79.4%
same,"viability, T/C",[39],65.7%
same,"viability, T/C",[40],59.2%
same,"viability, T/C",[41],52%
same,"viability, T/C",[42],46.3%
Cc1nc(NC(=O)N2CCCC2C(N)=O)sc1-c1ccnc(C(C)(C)C(F)(F)F)c1 (centres undefined),"viability, T/C",compound 0.0316 µM,99.6% [middle of 7 runs]
same,"viability, T/C",compound 0.1 µM,94.8% [middle of 7 runs]
same,"viability, T/C",compound 0.316 µM,84.8% [middle of 7 runs]
same,"viability, T/C",compound 1 µM,80.8% [middle of 7 runs]
same,"viability, T/C",compound 3.16 µM,74.6% [middle of 7 runs]
same,"viability, T/C",compound 10 µM,63.1% [middle of 7 runs]
same,IC50,"compound alone, run of 05/08/2023",> 10000 nM
Cn1nccc1Nc1nccc(-c2ccn(C(CO)c3ccc(Cl)c(F)c3)c(=O)c2)n1 (centres undefined) + CC(Nc1ccc2c(c1)OCCn1cc(N3C(=O)OCC3C(F)F)nc1-2)C(N)=O,IC50,[1],8420 nM
same,IC50,[2],3650 nM
same,IC50,[3],4150 nM
same,IC50,[4],2890 nM
same,IC50,[5],1740 nM
same,IC50,[6],1090 nM
same,"viability, T/C",[9],96.7%
same,"viability, T/C",[10],98.6%
same,"viability, T/C",[11],88.6%
same,"viability, T/C",[12],81.2%
same,"viability, T/C","second compound 0.00316 µM, first compound 3.16 µM",64.5%
same,"viability, T/C","second compound 0.00316 µM, first compound 10 µM",47.4%
same,"viability, T/C",[15],99%
same,"viability, T/C",[16],92.4%
same,"viability, T/C",[17],97.2%
same,"viability, T/C",[18],79.9%
same,"viability, T/C","second compound 0.01 µM, first compound 3.16 µM",52.3%
same,"viability, T/C","second compound 0.01 µM, first compound 10 µM",37.2%
same,"viability, T/C",[21],99.5%
same,"viability, T/C",[22],91.5%
same,"viability, T/C",[23],82.6%
same,"viability, T/C",[24],74.3%
same,"viability, T/C","second compound 0.0316 µM, first compound 3.16 µM",54.4%
same,"viability, T/C","second compound 0.0316 µM, first compound 10 µM",33.1%
same,"viability, T/C",[27],102%
same,"viability, T/C",[28],86.1%
same,"viability, T/C",[29],86.1%
same,"viability, T/C",[30],69.8%
same,"viability, T/C","second compound 0.1 µM, first compound 3.16 µM",46.5%
same,"viability, T/C","second compound 0.1 µM, first compound 10 µM",25.9%
same,"viability, T/C",[33],91.7%
same,"viability, T/C",[34],76.2%
same,"viability, T/C",[35],73%
same,"viability, T/C",[36],61.8%
same,"viability, T/C","second compound 0.316 µM, first compound 3.16 µM",38.6%
same,"viability, T/C","second compound 0.316 µM, first compound 10 µM",18%
same,"viability, T/C",[39],72.8%
same,"viability, T/C",[40],76.5%
same,"viability, T/C",[41],68.8%
same,"viability, T/C",[42],51%
same,"viability, T/C","second compound 1 µM, first compound 3.16 µM",29.2%
same,"viability, T/C","second compound 1 µM, first compound 10 µM",17.7%
Cn1ncc(Cl)c1-c1cc(C(=O)NC(CN)Cc2cccc(F)c2)sc1Cl (centres undefined),"viability, T/C",compound 0.0316 µM,105% [middle of 4 runs]
same,"viability, T/C",compound 0.1 µM,98.2% [middle of 4 runs]
same,"viability, T/C",compound 0.316 µM,96.1% [middle of 4 runs]
same,"viability, T/C",compound 1 µM,87.7% [middle of 4 runs]
same,"viability, T/C",compound 3.16 µM,77.1% [middle of 4 runs]
same,"viability, T/C",compound 10 µM,39.5% [middle of 4 runs]
same,IC50,curve of compound,7.22 µM [middle of 4 runs]
CC(Cn1ccc(-c2ccc(C#N)c(Cl)c2)n1)NC(=O)c1cc(C(C)O)[nH]n1 (centres undefined),"viability, T/C",compound 0.0316 µM,109% and 95.2% and 110%
same,"viability, T/C",compound 0.1 µM,107% and 94.8% and 102%
same,"viability, T/C",compound 0.316 µM,109% and 108% and 101%
same,"viability, T/C",compound 1 µM,117% and 108% and 106%
same,"viability, T/C",compound 3.16 µM,98.7% and 110% and 107%
same,"viability, T/C",compound 10 µM,103% and 102% and 108%
same,IC50,curve of compound,> 10000 nM
Cn1cnc2c(F)c(Nc3ccc(Br)cc3Cl)c(C(=O)NOCCO)cc21,"viability, T/C",compound 0.00949 µM,89.7% [middle of 4 runs]
same,"viability, T/C",compound 0.03 µM,67.5% [middle of 4 runs]
same,"viability, T/C",compound 0.0949 µM,53.3% [middle of 4 runs]
same,"viability, T/C",compound 0.3 µM,35.9% [middle of 4 runs]
same,"viability, T/C",compound 0.949 µM,22.4% [middle of 4 runs]
same,"viability, T/C",compound 3 µM,12.2% (2×) and 12.7% and 13.3%
same,IC50,curve of compound,118 nM [middle of 4 runs]
CC(=O)c1c(C)c2cnc(Nc3ccc(N4CCNCC4)cn3)nc2n(C2CCCC2)c1=O + COc1c(OCCCN2CCOCC2)ccc2c3n(c(=NC(=O)c4cnc(N)nc4)nc12)CCN3,IC50,[1],> 100 nM
same,IC50,[2],> 100 nM
same,IC50,[3],> 100 nM
same,IC50,[4],> 100 nM
same,IC50,[5],0.489 nM
same,IC50,[6],< 0.316 nM
same,"viability, T/C","second compound 0.00316 µM, first compound 0.000316 µM",108%
same,"viability, T/C","second compound 0.00316 µM, first compound 0.001 µM",102%
same,"viability, T/C",[7],94.8%
same,"viability, T/C",[8],99.6%
same,"viability, T/C",[9],97.3%
same,"viability, T/C",[10],94.8%
same,"viability, T/C","second compound 0.01 µM, first compound 0.000316 µM",105%
same,"viability, T/C","second compound 0.01 µM, first compound 0.001 µM",97.7%
same,"viability, T/C",[13],92.7%
same,"viability, T/C",[14],94%
same,"viability, T/C",[15],98.6%
same,"viability, T/C",[16],91.5%
same,"viability, T/C","second compound 0.0316 µM, first compound 0.000316 µM",77.5%
same,"viability, T/C","second compound 0.0316 µM, first compound 0.001 µM",84.4%
same,"viability, T/C",[19],76.2%
same,"viability, T/C",[20],80.9%
same,"viability, T/C",[21],82.3%
same,"viability, T/C",[22],79.4%
same,"viability, T/C","second compound 0.1 µM, first compound 0.000316 µM",70.8%
same,"viability, T/C","second compound 0.1 µM, first compound 0.001 µM",65%
same,"viability, T/C",[25],66.2%
same,"viability, T/C",[26],64.1%
same,"viability, T/C",[27],67.7%
same,"viability, T/C",[28],51.2%
same,"viability, T/C","second compound 0.316 µM, first compound 0.000316 µM",51.9%
same,"viability, T/C","second compound 0.316 µM, first compound 0.001 µM",47.2%
same,"viability, T/C",[31],47.6%
same,"viability, T/C",[32],43.8%
same,"viability, T/C",[33],44.5%
same,"viability, T/C",[34],37.5%
same,"viability, T/C","second compound 1 µM, first compound 0.000316 µM",35.1%
same,"viability, T/C","second compound 1 µM, first compound 0.001 µM",35.9%
same,"viability, T/C",[37],32.2%
same,"viability, T/C",[38],31.9%
same,"viability, T/C",[39],34.3%
same,"viability, T/C",[40],26.1%
